According to US20250059170A1, “SOLID STATE FORMS OF AN FGFR INHIBITOR” (Kinnate Biopharma Inc., priority 2021, published 2025):
Values after ≈ are worked out from the molar mass of the structure shown. Values belong to the compound of their own block, whether it stands above or below them.

Legend:
Assay type in all cases: physicochemical
[1] = Preliminary solubility in 14 solvents by solvent addition with visual assessment; conditions: thermodynamic from solid, RT
Source text: Preliminary solubility of Compound 1 (Form V) was estimated in 14 selected solvents at RT using solvent addition method via visual assessment of samples.

[2] = Water activity studies in IPA/water
Experimental: Water activity studies of Form I, II and V were also performed in IPA/water with different water content at RT and 50° C.

[3] = Solubility testing of Form II in SGF, water, FaSSIF and FeSSIF; conditions: for solubility: thermodynamic from solid
Experimental: Nine crystal forms were identified, assigned as Form I-IX, including a mono-hydrate (Form I) four anhydrates (Form II, III, V and IX), a hemihydrate, (Form IV) and three solvates (Form VI, VII and VIII). […] The three solvates (Form VI, VII, and VIII) converted to Form II after desolvation and recrystallization during heating by DSC. Form II was evaluated by DVS, solubility and stability testing. […] The purity decreased by about 0.3% at 60° C. for 3 days and 7 days, mainly due to the increase of impurities at RRT 0.9, 0.91 and 1.07.
(§1) HPLC analysis was performed with an Agilent HPLC 1260 series instrument.

[4] = Competitive slurry inter-conversion studies; conditions: competitive slurries in non-aqueous solvents, RT and 50° C.
Experimental: Competitive slurries of Form I, II and V were performed in IPAC at RT and 50° C. […] A competitive slurry of Form III and Form II was conducted in IPA and IPAC at RT and 50° C., respectively, and all mixtures converted to Form II after 1 day. A competitive slurry of Form II and IX was also performed in IPA and IPAC at RT and 50° C. […] In IPA at RT and IPA and EA at RT and 50° C., all mixtures tended to convert to Form II.

[5] = Dynamic Vapor Sorption (DVS)
Experimental: Moisture sorption/desorption data was collected on a DVS Intrinsic PLUS (SMS, UK). The sample was placed into a tared sample chamber and automatically weighed. The sample was dried at 40° C./0% RH until the dm/dt was less than 0.002% and cooled to 25° C.

[6] = Solid stability of Form II
Experimental: as §1
The solid stability of Form II was evaluated at 60° C. for 7 days, 40° C./75% RH for 6 days, and RT/92.5% RH for 2 days, respectively. […] The purity of Compound 1 decreased by about 0.3% at 60° C. for 3 days and 7 days, mainly due to the increase of the impurities at RRT 0.9, 0.91 and 1.07.

[7] = Solid form characterization summary (hygroscopicity comment); conditions: comment on solid form
Source text: A summary of the characterization data for the solid forms of Compound 1 identified is shown below in Table 15.

solubility ([1]; organic solvent or mixture, ACN, Form V material, read-out: Solubility): 27 to 36 mg/mL (≈ 51.6 to 68.8 mM)
solubility ([1]; organic solvent or mixture, Acetone, Form V material, read-out: Solubility): ~34 mg/mL (≈ 64.9 mM)
solubility ([1]; organic solvent or mixture, EA, Form V material, read-out: Solubility): ~8 mg/mL (≈ 15.3 mM)
solubility ([1]; organic solvent or mixture, EtOH, Form V material, read-out: Solubility): ~21 mg/mL (≈ 40.1 mM)
solubility ([1]; organic solvent or mixture, IPA, Form V material, read-out: Solubility): ~5 mg/mL (≈ 9.55 mM)
solubility ([1]; organic solvent or mixture, IPAC, Form V material, read-out: Solubility): ~4 mg/mL (≈ 7.64 mM)
solubility ([1]; organic solvent or mixture, Isobutanol, Form V material, read-out: Solubility): ~6 mg/mL (≈ 11.5 mM)
solubility ([1]; organic solvent or mixture, MEK, Form V material, read-out: Solubility): ~31 mg/mL (≈ 59.2 mM)
solubility ([1]; organic solvent or mixture, MTBE, Form V material, read-out: Solubility): < 0.75 mg/mL
solubility ([1]; organic solvent or mixture, MeOH, Form V material, read-out: Solubility): > 106 mg/mL
solubility ([1]; organic solvent or mixture, THF, Form V material, read-out: Solubility): > 100 mg/mL
solubility ([1]; organic solvent or mixture, Toluene, Form V material, read-out: Solubility): < 1 mg/mL
solubility ([1]; organic solvent or mixture, n-Heptane, Form V material, read-out: Solubility): < 1 mg/mL
solubility ([1]; Water, Form V material, read-out: Solubility): < 1 mg/mL
Structure (SMILES): C=CC(=O)N1C[C@@H](n2nc(C#Cc3c(F)cc4c(ncn4C4CC4)c3F)c(C(N)=O)c2NC)C[C@@H]1COC [Compound 1, 1-((3S,5R)-1-acryloyl-5-(methoxymethyl)pyrrolidin-3-yl)-3-((1-cyclopropyl-4,6-difluoro-1H-benzo[d]imidazol-5-yl)ethynyl)-5-(methylamino)-1H-pyrazole-4-carboxamide]

Water activity (aw) at which Form I is more stable than Form II ([2]; 50° C.): ≥ 0.75
Water activity (aw) at which Form I is more stable than Form II ([2]; RT): ≥ 0.55
Structure (SMILES): C=CC(=O)N1C[C@@H](n2nc(C#Cc3c(F)cc4c(ncn4C4CC4)c3F)c(C(N)=O)c2NC)C[C@@H]1COC [Form I, 1-((3S,5R)-1-acryloyl-5-(methoxymethyl)pyrrolidin-3-yl)-3-((1-cyclopropyl-4,6-difluoro-1H-benzo[d]imidazol-5-yl)ethynyl)-5-(methylamino)-1H-pyrazole-4-carboxamide]

solubility ([3]; SGF, simulated gastric fluid): 0.8 mg/mL (≈ 1.53 mM)
Solubility in FeSSIF relative to FaSSIF ([3]; at 24 h): about thirty times higher
solubility ([3]; water): ~0.003 mg/mL (≈ 0.00573 mM)
Water activity (aw) at which the form is physically stable ([2]; 50° C.): ≤ 0.55
Water activity (aw) at which the form is physically stable ([2]; RT): ≤ 0.35
Relative stability of forms [4]: most stable form in non-aqueous solvents
Hygroscopicity ([5]; DVS): slightly hygroscopic
Crystal form after DVS testing ([5]; after DVS testing): remained unchanged
Solid stability ([6]; 40° C./75% RH for 6 days): physically and chemically stable
Purity decrease ([6]; 60° C. for 3 days and 7 days): about 0.3%
Solid stability ([6]; RT/92.5% RH for 2 days): physically stable
Structure (SMILES): C=CC(=O)N1C[C@@H](n2nc(C#Cc3c(F)cc4c(ncn4C4CC4)c3F)c(C(N)=O)c2NC)C[C@@H]1COC [Form II, 1-((3S,5R)-1-acryloyl-5-(methoxymethyl)pyrrolidin-3-yl)-3-((1-cyclopropyl-4,6-difluoro-1H-benzo[d]imidazol-5-yl)ethynyl)-5-(methylamino)-1H-pyrazole-4-carboxamide]

Hygroscopicity [7]: Hygroscopic
Structure (SMILES): C=CC(=O)N1C[C@@H](n2nc(C#Cc3c(F)cc4c(ncn4C4CC4)c3F)c(C(N)=O)c2NC)C[C@@H]1COC [Form III, 1-((3S,5R)-1-acryloyl-5-(methoxymethyl)pyrrolidin-3-yl)-3-((1-cyclopropyl-4,6-difluoro-1H-benzo[d]imidazol-5-yl)ethynyl)-5-(methylamino)-1H-pyrazole-4-carboxamide]

solubility ([1]; organic solvent or mixture, MeOH, THF, acetone, MEK and ACN, read-out: Solubility (relatively high)): > 20 mg/mL
solubility ([1]; non-polar solvents and water, read-out: Solubility (practically insoluble)): < 1 mg/mL
Structure (SMILES): C=CC(=O)N1C[C@@H](n2nc(C#Cc3c(F)cc4c(ncn4C4CC4)c3F)c(C(N)=O)c2NC)C[C@@H]1COC [Form V, 1-((3S,5R)-1-acryloyl-5-(methoxymethyl)pyrrolidin-3-yl)-3-((1-cyclopropyl-4,6-difluoro-1H-benzo[d]imidazol-5-yl)ethynyl)-5-(methylamino)-1H-pyrazole-4-carboxamide]
